What was measured:
[1] = target: recombinant human cathepsin B (Homo sapiens, UniProt P07858); test: in vitro cathepsin B assay; assay type: biochemical; details: Z-Arg-Arg-AMC substrate, pH 5.8 phosphate buffer, fluorescence at 20 minutes
Method: The cathepsin inhibitory effects of the compound of the invention can be determined in vitro by measuring the inhibition of e.g. recombinant human cathepsins B, L and S. The buffer used in the assays is a 0.1 M pH 5.8 phosphate buffer containing EDTA (1.33 mM), DTT (2.7 mM) and Brij (0.03%).
The in vitro assays are carried out as follows:
To a microtiter well is added 100 uL of a 20 uM solution of inhibitor in assay buffer followed by 50 uL of a 6.4 mM solution of Z—Arg—Arg—AMC substrate (Peptides International) in assay buffer. After mixing, 50 uL of a 0.544 nM solution of recombinant human cathepsin B in assay buffer is added to the well, yielding a final inhibitor concentration of 10 uM. Enzyme activity is determined by measuring fluorescence of the liberated aminomethylcoumarin at […] using 380 nm excitation, at 20 minutes. % Enzyme inhibition is determined by comparison of this activity to that of a solution containing no inhibitor. Compounds are subsequently subjected to a dose response curve analysis to determine IC50 values.

Compound `C=CCOC(=O)c1cccc(COCC(C#N)NC(=O)[C@H](Cc2cccc(C)c2)Nc2ccc(F)cc2)c1` (stereo in doubt) [Example 5, N-[2-[3-(allyloxycarbonyl)-benzyloxy]-1(S)-cyanoethyl]-3-methyl-Nα-(4-fluorophenyl)-L-phenylalaninamide] has a melting point of 86 to 88 °C.
For `Cc1cccc(C[C@H](Nc2ccccc2)C(=O)NC(C#N)COCc2cccc(C(=O)O)c2)c1` (stereo in doubt) [Example 6, N-[2-(3-Carboxy-benzyloxy)-1(S)-cyanoethyl]-3-methyl-Nα-phenyl-L-phenylalaninamide], the IC50 [1] was ~100 nM and the melting point was 135 to 137 °C.
In the case of `N#C[C@@H](COCc1cccc(C(=O)O)c1)NC(=O)C1(Nc2ccccc2)CCCCC1` [Example 14 (a), N-[2-(3-carboxybenzyloxy)-1-(S)-cyanoethyl]-1-(phenylamino)-cyclohexanecarboxamide], the melting point is reported as 80 to 83 °C.
In the case of `N#CCNC(=O)CN(c1ccccc1)C1Cc2ccccc2C1` [Example 14 (b), N-(cyanomethyl)-Nα-(phenyl)-indan-2-yl-glycine-amide], the melting point is reported as 169 to 170 °C.

— patent publication US6812237B2, “N-substituted peptidyl nitriles as cysteine cathepsin inhibitors” (Novartis AG, priority 2000, dated 2004)
